Measured values published in the supplement of paper PMC10307832.

Assays:
Experiment in all cases: relative viability (nuclei count vs DMSO), 5 days (fraction); higher = more cells survive
Bleomycin + Alpelisib = compound: CC1=C(N=C(N=C1N)[C@H](CC(=O)N)NC[C@@H](C(=O)N)N)C(=O)N[C@@H]([C@H](C2=CN=CN2)OC3C(C(C(C(O3)CO)O)O)OC4C(C(C(C(O4)CO)O)OC(=O)N)O)C(=O)N[C@H](C)[C@H]([C@H](C)C(=O)N[C@@H]([C@@H](C)O)C(=O)NCCC5=NC(=CS5)C6=NC(=CS6)C(=O)NCCC[S+](C)C)O [Bleomycin] + Cc1nc(NC(=O)N2CCC[C@H]2C(N)=O)sc1-c1ccnc(C(C)(C)C(F)(F)F)c1 [Alpelisib] (partner 2 µM); settings: main component drawn
Procedure, shortened: (§1)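 Lung cancer cell lines in 1536-well plates were dosed by pin tool the day after seeding, either with one drug alone or with a fixed anchor-drug dose plus five library-drug doses (not always all listed) in √10 steps. After 5 days, cells were fixed and their nuclei stained in one step (final 0.05% Triton X-100, 1% formaldehyde, 1 ug/ml Hoechst), then counted on 4× images. Relative viability is the nuclei count in treated wells divided by that in vehicle wells. Values are medians of duplicate plates.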

Etoposide + Foretinib = compound: COc1cc([C@@H]2c3cc4c(cc3[C@@H](O[C@@H]3O[C@@H]5CO[C@@H](C)O[C@H]5[C@H](O)[C@H]3O)[C@H]3COC(=O)[C@H]23)OCO4)cc(OC)c1O [Etoposide] + COc1cc2c(Oc3ccc(NC(=O)C4(C(=O)Nc5ccc(F)cc5)CC4)cc3F)ccnc2cc1OCCCN1CCOCC1 [Foretinib] (partner 0.25 µM)
Procedure, shortened: as §1

Etoposide + Phenformin = compound: COc1cc([C@@H]2c3cc4c(cc3[C@@H](O[C@@H]3O[C@@H]5CO[C@@H](C)O[C@H]5[C@H](O)[C@H]3O)[C@H]3COC(=O)[C@H]23)OCO4)cc(OC)c1O [Etoposide] + N=C(N)NC(=N)NCCc1ccccc1 [Phenformin] (partner 250 µM)
Procedure, shortened: as §1

Bleomycin + Dasatinib = compound: CC1=C(N=C(N=C1N)[C@H](CC(=O)N)NC[C@@H](C(=O)N)N)C(=O)N[C@@H]([C@H](C2=CN=CN2)OC3C(C(C(C(O3)CO)O)O)OC4C(C(C(C(O4)CO)O)OC(=O)N)O)C(=O)N[C@H](C)[C@H]([C@H](C)C(=O)N[C@@H]([C@@H](C)O)C(=O)NCCC5=NC(=CS5)C6=NC(=CS6)C(=O)NCCC[S+](C)C)O [Bleomycin] + Cc1nc(Nc2ncc(C(=O)Nc3c(C)cccc3Cl)s2)cc(N2CCN(CCO)CC2)n1 [Dasatinib] (partner 0.075 µM); settings: main component drawn
Procedure, shortened: as §1

Cell Line | relative viability (Bleomycin + Alpelisib; first compound 0.01 µM) | relative viability (Bleomycin + Alpelisib; first compound 0.03162 µM) | relative viability (Bleomycin + Alpelisib; first compound 0.1 µM) | relative viability (Bleomycin + Alpelisib; first compound 0.3162 µM) | relative viability (Bleomycin + Alpelisib; first compound 1 µM) | relative viability (Etoposide + Foretinib; first compound 0.01 µM) | relative viability (Etoposide + Foretinib; first compound 0.03162 µM) | relative viability (Etoposide + Foretinib; first compound 0.3162 µM) | relative viability (Etoposide + Foretinib; first compound 1 µM) | relative viability (Etoposide + Phenformin; first compound 0.01 µM) | relative viability (Etoposide + Phenformin; first compound 0.03162 µM) | relative viability (Etoposide + Phenformin; first compound 0.3162 µM) | relative viability (Etoposide + Phenformin; first compound 1 µM) | relative viability (Bleomycin + Dasatinib; first compound 0.01 µM) | relative viability (Bleomycin + Dasatinib; first compound 0.03162 µM) | relative viability (Bleomycin + Dasatinib; first compound 0.1 µM) | relative viability (Bleomycin + Dasatinib; first compound 1 µM) | relative viability (Etoposide + Foretinib; first compound 0.1 µM) | relative viability (Etoposide + Phenformin; first compound 0.1 µM) | relative viability (Bleomycin + Dasatinib; first compound 0.3162 µM)
NCI-H727 | 0.499 | 0.529 | 0.491 | 0.293 | 0.308 | 0.988 | 0.912 | 0.732 | 0.606 | 0.556 | 0.664 | 0.531 | 0.437 | 0.466 | 0.345 | 0.325 | 0.293 |  |  | 
NCI-H838 | 0.674 | 0.29 | 0.238 | 0.161 | 0.212 | 0.981 | 1.03 | 0.841 | 0.35 | 0.517 | 0.64 | 0.395 | 0.183 | 0.267 | 0.265 | 0.243 | 0.175 | 1.01 | 0.44 | 0.153
NCI-H1355 | 0.777 | 0.935 | 0.802 | 0.566 | 0.323 | 0.812 | 0.998 | 0.507 | 0.285 | 0.452 | 0.493 | 0.325 | 0.218 | 0.668 | 0.661 | 0.84 | 0.192 | 0.828 | 0.408 | 0.252
NCI-H1395 | 0.817 | 0.812 | 0.669 | 0.9 | 0.382 | 1 | 0.978 | 0.885 | 0.606 | 0.464 | 0.415 | 0.441 | 0.425 | 0.377 | 0.413 | 0.379 | 0.381 | 0.868 | 0.473 | 0.412
NCI-H1437 | 0.799 | 0.922 | 0.83 | 0.406 | 0.396 | 1.21 | 1.2 | 0.943 | 0.44 | 0.265 | 0.342 | 0.233 | 0.2 | 0.388 | 0.422 | 0.39 | 0.23 | 1.27 | 0.357 | 0.164
NCI-H1563 | 0.831 | 0.707 | 0.678 | 0.613 | 0.572 | 0.758 | 0.93 | 0.609 | 0.604 | 0.628 | 0.7 | 0.55 | 0.476 | 0.439 | 0.452 | 0.438 | 0.47 | 0.785 | 0.609 | 0.401
NCI-H1651 | 0.708 | 0.71 | 0.733 | 0.236 | 0.174 | 0.781 | 0.659 | 0.351 | 0.251 | 0.293 | 0.351 | 0.205 | 0.149 | 0.344 | 0.361 | 0.384 | 0.144 | 0.784 | 0.286 | 0.187
NCI-H1666 | 0.711 | 0.708 | 0.625 | 0.264 | 0.354 | 0.962 | 0.919 | 0.42 | 0.461 | 0.513 | 0.571 | 0.398 | 0.363 | 0.658 | 0.521 | 0.565 | 0.317 | 0.695 | 0.507 | 0.374
NCI-H1734 | 0.626 | 0.519 | 0.514 | 0.27 | 0.216 | 0.776 | 0.923 | 0.602 | 0.369 | 0.366 | 0.468 | 0.37 | 0.233 | 0.357 | 0.312 | 0.348 | 0.154 | 0.701 | 0.324 | 0.145
NCI-H1755 | 0.939 | 0.93 | 0.906 | 0.658 | 0.58 | 0.958 | 0.974 | 0.883 | 0.869 | 0.63 | 0.671 | 0.589 | 0.495 | 0.409 | 0.433 | 0.407 | 0.29 | 0.919 | 0.597 | 0.454
NCI-H1793 | 0.695 | 0.783 | 0.612 | 0.171 | 0.176 | 0.491 | 0.644 | 0.503 | 0.248 | 0.329 | 0.47 | 0.394 | 0.159 | 0.382 | 0.427 | 0.329 | 0.115 |  |  | 0.17
NCI-H1915 | 0.896 | 0.888 | 0.68 | 0.325 | 0.167 | 1.06 | 1.18 | 0.986 | 0.877 | 0.38 | 0.361 | 0.346 | 0.324 | 0.247 | 0.258 | 0.181 | 0.0984 | 1.16 | 0.429 | 0.0914
NCI-H1944 | 0.627 | 0.518 | 0.506 | 0.288 | 0.179 | 0.697 | 0.95 | 0.471 | 0.347 | 0.189 | 0.275 | 0.148 | 0.123 | 0.173 | 0.177 | 0.159 | 0.106 | 0.578 | 0.213 | 0.115
NCI-H1975 | 0.607 | 0.616 | 0.555 | 0.254 | 0.232 | 0.914 | 0.938 | 0.91 | 0.286 | 0.398 | 0.486 | 0.293 | 0.17 | 0.34 | 0.343 | 0.287 | 0.115 | 0.895 | 0.382 | 0.13
NCI-H1993 | 0.648 | 0.642 | 0.618 | 0.536 | 0.522 | 0.788 | 0.906 | 0.733 | 0.51 | 0.502 | 0.571 | 0.51 | 0.412 | 0.548 | 0.604 | 0.597 | 0.464 | 0.557 | 0.528 | 0.462
